Assay results reported in US10786580B2, “Cholecystokinin 2 receptor targeted NIR imaging and use thereof” (On Target Laboratories, LLC, priority 2016, dated 2020).
Where two headings read alike, the source gives them in different places.

What was measured:
[1] = Excitation and emission spectra; assay type: physicochemical; conditions: FIG. 12
Description: FIG. 12 depicts the chemical structure, excitation and emission spectra of compound 21 (OTL81).

[2] = tested on: HEK-CCK2R tumor xenograft; test: Whole-body imaging and ex vivo tissue biodistribution in mice bearing HEK-CCK2R tumor xenografts
Procedure: (§1) FIG. 2A illustrates the overlay of whole body fluorescence image over white light images after adjusting the threshold for compound 40. HEK-CCK2R tumor xenograft bearing mice were injected with 10 nmol of compound 1 and imaged with IVIS imager (ex=745 nm, em=ICG, exposure time=1 s) at 2 h post-injection. After imaging, selected tissues were harvested, and tissues were imaged with IVIS imager (ex=745 nm, em=ICG, exposure time=1 s).
as §1, with “FIG. 2C depicts” for “FIG. 2A illustrates”, “compound 41.” for “compound 40.”, “[…]” for “compound 1”
as §1, with “FIG. 5A” for “FIG. 2A”, “the analysis of compound 21” for “the”, “the threshold.” for “the threshold for compound 40.”, “of 21” for “of compound 1”
FIG. 9 depicts a head-to-head comparison of fluorescence in the tumors from the mice injected with CCK2R-targeted-NIR dye compounds 21, 40-44. Overlay of tumor fluorescence image over white light images. HEK-CCK2R tumor xenograft bearing mice were injected with 10 nmol of requisite compound and imaged with IVIS imager at 2 h post-injection. After imaging, tumor tissues were harvested, and imaged with IVIS imager (ex=745 nm, em=ICG, exposure time=1 s).
FIG. 14E depicts the in vivo efficacy and specificity of 21 by whole-body imaging with nude mice bearing HEK-CCK2R tumors.
FIG. 14F depicts the ex vivo tissue biodistribution of mice of FIG. 14E dissecting after whole-body imaging.
Athymic female nude (nu/nu) mice (5 weeks old, 18-20 g) were purchased from Envigo (Indianapolis, Ind.) and maintained on normal rodent diet (Teklad, Wis.). Animals were housed 5/cage in a barrier, pathogen-free cloaked rack. Autoclaved tap water and food were given as needed. The animals were housed in a sterile environment on a standard 12 hour light-dark cycle for the duration of the study. […]
six-weeks-old female nu/nu mice were inoculated subcutaneously with HEK-CCK2 cells (5.0×10^6/mouse in 50% high concentrated matrigel in GIBCO medium) on the shoulder. Growth of the tumors was measured in perpendicular directions every 2 days using a caliper (body weights were monitored on the same schedule), and the volumes of the tumors were calculated as 0.5×L×W^2 (L=longest axis and W=axis perpendicular to L in millimeters). […]

[3] = tested on: HEK-CCK2 cells; test: Epi-fluorescence microscopy of binding to CCK2R expressing HEK cells; assay type: cell-based, human; conditions: FIGS. 14c & d
Procedure: (§2) HEK-CCK2 cells (a human embryonic kidney cells transfected with CCK2 receptor) were a kind gift from Dr. Mark Hellmich (University of Texas Medical Branch, Galveston, Tex.) and grown as a monolayer using Dulbecco's Modified Eagles Medium (GIBCO) (Gibco, NY) 10% heat-inactivated fetal bovine serum (Atlanta Biological, GA) and 1% penicillin streptomycin (Gibco, NY) in a 5% carbon dioxide: 95% air-humidified atmosphere at 37° C. for at least six passages before they were used for the assays.

[4] = target: T1, CCK2R (Homo sapiens, UniProt P32239); test: In vitro binding of CCK2R-NIR compounds to HEK-CCK2R cells (cell bound fluorescence); parameters: expressed in transfected cells; host or cells: HEK (human embryonic kidney) cells, HEK-CCK2R, gift from Dr. Mark Hellmich (UTMB); conditions: for Kd: 1 h at 37° C.
T1 sequence (P32239 1-447): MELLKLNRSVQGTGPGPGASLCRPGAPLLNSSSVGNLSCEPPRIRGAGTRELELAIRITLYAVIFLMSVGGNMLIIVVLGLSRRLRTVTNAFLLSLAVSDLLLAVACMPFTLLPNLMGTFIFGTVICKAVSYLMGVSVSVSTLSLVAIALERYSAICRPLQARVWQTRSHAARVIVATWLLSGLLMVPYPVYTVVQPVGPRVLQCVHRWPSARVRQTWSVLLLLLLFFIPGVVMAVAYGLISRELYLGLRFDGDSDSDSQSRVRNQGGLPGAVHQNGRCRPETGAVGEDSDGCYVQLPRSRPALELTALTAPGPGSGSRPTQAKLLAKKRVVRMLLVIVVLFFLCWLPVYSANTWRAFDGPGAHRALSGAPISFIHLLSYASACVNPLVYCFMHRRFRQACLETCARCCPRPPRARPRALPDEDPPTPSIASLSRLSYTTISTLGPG
Procedure: (§3) FIG. 4 depicts the binding affinities of CCK2R-NIR compounds 21, 42-44 to CCK2R. CCK2R-positive HEK-CCK2R cancer cells were incubated for 1 h at 37° C. with increasing concentrations of compounds. Media was then removed, washed with fresh media three times, and replaced with PBS. Cell bound fluorescence was assayed as using fluorometer.
CCK2R-positive HEK-CCK2R cancer cells were incubated for 1 h at 37° C. with increasing concentrations of compounds. Media was then removed, washed with fresh media three times, and replaced with PBS. Cell bound fluorescence was assayed as using fluorometer.
as §3, with “13 illustrates” for “4 depicts”, “affinity” for “affinities”, “of” for “of CCK2R-NIR”, “[…]” for “21, 42-44”, “compound 21.” for “compounds.”
as §2
HEK cells that overexpress CCK2 were seeded into a T75 flask and allowed to form a monolayer over 48 h. After trypsin digestion, release cells were transferred into centrifuge tubes (1×10^6 cells/tube) and centrifuged. The medium was replaced with fresh medium containing increasing concentration of requisite CCK2R-Ligand-NIR dye compound in the presence or absence of 100-fold excess the ligand, a high affinity CCK2 receptor antagonist, and incubated for 1 h at 37° C. After rinsing with fresh medium (2×1.0 mL) and PBS (1×1.0 mL), cells were resuspended in PBS (1.0 mL) and cell bound fluorescence was analyzed (100,000 cells/sample) using a fluorometer (Cary, Agilent). The relative binding affinities were calculated using a plot of % cell bound fluorescence versus the log concentration of the test article using GraphPad Prism 4.

[5] = FIG. 14, mice bearing HEK-CCK2R tumor xenografts

CC(C)(C)C(=O)CN1C(=O)[C@H](NC(=O)Nc2cccc(C(=O)N[C@H](CCC(=O)N[C@@H](Cc3ccc(OC4=C(/C=C/C5=[N+](CCCCS(=O)(=O)[O-])c6ccc(S(=O)(=O)O)cc6C5(C)C)CCC/C4=C\C=C4\N(CCCCS(=O)(=O)O)c5ccc(S(=O)(=O)O)cc5C4(C)C)cc3)C(=O)O)C(=O)O)c2)CN(C2CCCCC2)c2ccccc21 [Compound 21, 4-(2-((E)-2-((E)-2-(4-((S)-2-carboxy-2-((R)-4-carboxy-4-(3-(3-((R)-5-cyclohexyl-1-(3,3-dimethyl-2-oxobutyl)-2-oxo-2,3,4,5-tetrahydro-1H-benzo[b][1,4]diazepin-3-yl)ureido)benzamido)butanamido)ethyl)phenoxy)-3-(2-((E)-3,3-dimethyl-5-sulfo-1-(4-sulfobutyl)indolin-2-ylidene)ethylidene)cyclohex-1-en-1-yl)vinyl)-3,3-dimethyl-5-sulfo-3H-indol-1-ium-1-yl)butane-1-sulfonate]
Stokes shift [1]: 20 nm | emission wavelength [1]: 796 nm | excitation wavelength [1]: 776 nm | fluorescence intensity in the tumors ([2]; 10 nmol, 2 h post-injection): very high fluorescence intensity | tumor uptake, head-to-head comparison ([2]; FIG. 9, 10 nmol, 2 h post-injection, compounds 21, 40-44): highest tumor uptake | tissue uptake (whole-body imaging and ex vivo biodistribution) [2, 5]: solely taken up in CCK2R positive tumors with no accumulation in other tissues | tumor-to-background ratio [2, 5]: very high | labelling of HEK-CCK2 cells [3]: efficiently label | Kd ([4]; FIG. 13, HEK-CCK2R cells, read-out: dissociation constant (KD)): 1000 pM | Kd ([4]; Table 1, CCK2R-positive HEK-CCK2R cancer cells, read-out: KD): 670 pM | affinity for CCK2R (in words) ([4]; in vitro binding affinity data, HEK-CCK2R cells): very high affinity
